Consider two compounds from publication PMC4465272 (eNeuro, 2015).

Entries after “also recorded” stand apart in the source; their conditions may differ. Where two headings read alike, the source gives them in different places.

Assay [1] relates to eEPSCs in the dorsal horn of rat spinal cord. Particulars: cited from earlier work.
Assay [2] has as its system model of peripheral neuropathy in the rat. The settings on record: ref Franek et al., 2004; cited from earlier work. From the text:
Furthermore, GABAB receptor activation inhibits the activity of N-type CaV channels (CaV2.2) and inhibition of N-type channels expressed by nocicept ...

In assay [3] the test system is CaV current in rat sensory neurons (DRG). The assay can be described thus: cells. The format is cell-based, rat (adult male Sprague Dawley). The settings on record: for inhibition at 30 µM: Rattus norvegicus, Neuron.
A further assay deals with animal pain models. Particulars: in vivo, iv; cited from earlier work.

For `NCC(CC(=O)O)c1ccc(Cl)cc1` (stereo not shown) [baclofen, reference compound], the “effect on eEPSCs / EPSPs in dorsal horn” value in assay [1] was “strongly inhibited; also recorded: almost completely blocked”. In addition, the analgesic effect result in assay [2] is “analgesic effects”. For the same compound, the “sensory neurons with CaV current inhibited by baclofen” value in assay [3] came to 95%. Also, the “voltage dependence of CaV current inhibition” value in assay [3] is reported as “voltage-dependent”. The inhibition at 30 µM is 22% in assay [3] (read-out: CaV current inhibition in the neuron with the largest Vc1.1 and RgIA response); 34% in assay [3] (read-out: CaV current inhibition in the neuron with the largest baclofen response); 20 to 24% in assay [3] (read-out: baclofen-induced CaV current inhibition in seven other neurons); 12 ± 5.5% in assay [3] (read-out: postpulse CaV current inhibition); 19.2 ± 6.8% in assay [3] (read-out: prepulse CaV current inhibition).
For the compound ziconotide [reference compound], the “effect on neuropathic pain” value in the assay with animal pain models is given as “did not decrease neuropathic pain”.
